Results: US20060079453A1, “Hla binding peptides and their uses” (priority 2002, published 2006)
No end group written: not given here.

Legend:
Assay in all cases: biochemical
Type in all cases: binding
[1] = target: HLA-DR DRB3*0101 (DR52) (Homo sapiens, UniProt P01903+P79483)
[2] = target: HLA-DR DRB1*0802 (DR8) (Homo sapiens, UniProt P01903+P01911, A100R/A103L/A169T/F76Y/H45Y/I96F/K41T/L162R/M171V/P40S/Q125H/Q178H/Q39Y/Q99D/R218S/R42G/S66Y/V115G/W38E)
[3] = target: HLA-DR DRB4*0101 (DR53) (Homo sapiens, UniProt P01903+P13762, G164S); details: DRB4 *0101
[4] = target: HLA-DR DRB1*1101 (DR11) (Homo sapiens, UniProt P01903+P01911, A100R/A169T/A87E/I96F/K41T/L162R/M171V/P40S/Q125H/Q178H/Q39Y/Q99D/R42S/S66Y/T262R/V115G/W38E); details: DRB1 *1101
Sequence of HLA-DR DRB1*1101 (DR11) (P01903 26-254 limits assumed, other chains not shown): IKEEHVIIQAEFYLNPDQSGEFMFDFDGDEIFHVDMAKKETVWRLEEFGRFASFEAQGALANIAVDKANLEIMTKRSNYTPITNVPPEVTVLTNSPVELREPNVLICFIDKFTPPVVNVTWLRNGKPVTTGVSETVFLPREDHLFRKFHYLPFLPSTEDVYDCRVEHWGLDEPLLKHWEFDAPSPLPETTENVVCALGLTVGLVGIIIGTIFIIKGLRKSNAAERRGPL

[5] = target: HLA-DR DRB1*0401 (DR4) (Homo sapiens, UniProt P01903+P01911, A100K/A169T/F76Y/I96L/K127E/L162R/M171V/N62H/P40V/Q125Y/R42H/S133A/S149N/S66Y/V115G/V209L/W38E); details: DRB1 *0401
[6] = target: HLA-DR DRB1*0701 (DR7) (Homo sapiens, UniProt P01903+P01911, A100R/A102G/A103Q/D57E/D86V/E43K/F76Y/K127E/L162R/M171V/P40G/Q125H/Q99D/R33Q/R42Y/R54Q/S133A/S66F/T210M/V115G/Y107V/Y59L/Y89S); details: DRB1 *0701
[7] = target: HLA-DR DRB1*1501 (DR15) (Homo sapiens, UniProt P01903+P01911); details: DRBI *1501
[8] = target: HLA-DR DRB1*0301 (DR3) (Homo sapiens, UniProt P01903+P01911, A100K/A102G/A103R/A169T/F55Y/I96L/K41T/L162R/M171V/P40S/Q125H/Q178H/Q39Y/R42S/S66N/T106N/T262R/W38E/Y61H)
Sequence of HLA-DR DRB1*0301 (DR3) (P01903 26-254 limits assumed, other chains not shown): as above

[9] = target: HLA-DR DRB1*0101 (DR1) (Homo sapiens, UniProt P01903+P01911, A100R/D57E/F55L/F60I/F76Y/I96L/L162R/M171V/P40L/Q125E/R42F/V115G/Y59C); details: DRB1 *0101
[10] = target: HLA-DR DRB1*0901 (DR9) (Homo sapiens, UniProt P01903+P01911, A100R/A103E/D57H/D86V/F55Y/F60I/F76Y/I96F/K127E/L162R/M171V/P40D/Q125H/Q99R/R33Q/R42F/S133A/S66N/T210M/V115G/W38K/Y107V/Y59G/Y89S); details: DRB1 *0901
[11] = target: HLA-DR DRB1*1302 (DR13) (Homo sapiens, UniProt P01903+P01911, A100E/A169T/K41T/L162R/M171V/P40S/Q125H/Q178H/Q39Y/Q99D/R42S/S66N/T262R/V115G/W38E/Y61H); details: DRBI *1302
Sequence of HLA-DR DRB1*1302 (DR13) (P01903 26-254 limits assumed, other chains not shown): as above

[12] = target: HLA-DR DRB5*0101 (DR51) (Homo sapiens, UniProt P01903+Q30154); details: DRB5 *0101

Molecule	IC50 [1] [µM]	IC50 [2] [µM]	IC50 [3] [µM]	IC50 [4] [µM]	IC50 [5] [µM]	IC50 [6] [µM]	IC50 [7] [µM]	IC50 [8] [µM]	IC50 [9] [µM]	IC50 [10] [µM]	IC50 [11] [µM]	IC50 [12] [µM]
NGVLQGITSWGSEPC	8.04	5.87	4.49	9.72	0.56	0.485	0.258	24.9	0.945	0.819	0.775	–
CC[C@H](C)[C@H](N)C(=O)N[C@@H](CCCCN)C(=O)N[C@@H](CCCCN)C(=O)N[C@@H](Cc1ccccc1)C(=O)N[C@@H](CC(C)C)C(=O)N[C@@H](Cc1ccc(O)cc1)C(=O)N[C@@H](CC(N)=O)C(=O)N[C@@H](Cc1ccccc1)C(=O)N[C@H](C(=O)N[C@@H](CCC(N)=O)C(=O)N[C@H](C(=O)N1CCC[C@H]1C(=O)N[C@@H](Cc1c[nH]cn1)C(=O)N[C@@H](CC(C)C)C(=O)N[C@@H](C)C(=O)O)[C@@H](C)CC)[C@@H](C)O	0.477	0.512	0.096	0.137	0.043	0.029	0.305	8.08	0.449	0.16	0.027	–
LTELYFEKGEYFVEM	0.124	18.8	0.601	> 18.9	8.05	–	> 2.37	0.592	–	26.9	3.16	6.66
CC(C)C[C@H](NC(=O)[C@H](CO)NC(=O)[C@H](CC(C)C)NC(=O)[C@H](CO)NC(=O)[C@H](C)NC(=O)[C@H](C)NC(=O)[C@H](CCCNC(=N)N)NC(=O)[C@H](C)NC(=O)[C@H](CC(C)C)NC(=O)[C@H](CC(C)C)NC(=O)[C@H](CC(C)C)NC(=O)[C@@H]1CCCN1C(=O)[C@H](C)N)C(=O)NCC(=O)N[C@@H](Cc1ccccc1)C(=O)O	13.4	0.076	0.059	0.322	–	0.059	0.091	56.3	0.0084	0.124	0.012	–
CC[C@H](C)[C@H](NC(=O)[C@@H]1CCCN1)C(=O)N[C@@H](CC(C)C)C(=O)N[C@@H](CC(C)C)C(=O)N[C@@H](Cc1c[nH]c2ccccc12)C(=O)N[C@@H](CCC(N)=O)C(=O)N1CCC[C@H]1C(=O)N[C@H](C(=O)N1CCC[C@H]1C(=O)N[C@H](C(=O)N[C@@H](Cc1c[nH]cn1)C(=O)N[C@H](C(=O)N[C@H](C(=O)N1CCC[C@H]1C(=O)N[C@@H](CC(C)C)C(=O)O)C(C)C)[C@@H](C)O)C(C)C)[C@@H](C)CC	> 8.83	21.2	–	4.04	0.258	0.046	0.0069	> 81.8	0.044	0.168	0.567	41.5
CSCC[C@H](NC(=O)[C@H](CC(C)C)NC(=O)[C@@H]1CCCN1C(=O)[C@@H](NC(=O)[C@H](CS)NC(=O)[C@H](CC(=O)O)NC(=O)[C@@H](NC(=O)[C@H](CCCNC(=N)N)NC(=O)[C@H](CC(C)C)NC(=O)[C@@H](NC(=O)[C@H](Cc1ccc(O)cc1)NC(=O)[C@@H](N)CC(N)=O)[C@@H](C)O)C(C)C)[C@@H](C)O)C(=O)N[C@@H](Cc1ccc(O)cc1)C(=O)N[C@@H](CO)C(=O)N[C@@H](CC(C)C)C(=O)O	0.025	6.32	–	7.12	0.0099	24.6	5.06	0.045	6.8	48.4	0.009	66.7
CSCC[C@H](NC(=O)[C@H](CC(C)C)NC(=O)[C@H](CCC(N)=O)NC(=O)[C@H](CC(=O)O)NC(=O)[C@H](CC(N)=O)NC(=O)[C@H](CCSC)NC(=O)[C@H](CCSC)NC(=O)[C@H](CCCNC(=N)N)NC(=O)[C@H](CC(C)C)NC(=O)[C@@H](N)C(C)C)C(=O)N[C@@H](Cc1ccccc1)C(=O)N[C@@H](CC(C)C)C(=O)N[C@@H](CCC(=O)O)C(=O)N[C@@H](CCCNC(=N)N)C(=O)N[C@@H](C)C(=O)O	0.098	1.7	0.088	2.35	0.029	–	0.127	0.183	–	10.7	0.13	0.085
CC(C)C[C@H](NC(=O)CNC(=O)[C@H](Cc1ccccc1)NC(=O)[C@H](CCC(=O)O)NC(=O)[C@H](CCCCN)NC(=O)[C@@H](N)Cc1c[nH]c2ccccc12)C(=O)N[C@@H](CC(=O)O)C(=O)N[C@@H](CO)C(=O)N[C@H](C(=O)N[C@@H](CCC(=O)O)C(=O)N[C@@H](CC(C)C)C(=O)N[C@@H](C)C(=O)N[C@@H](Cc1c[nH]cn1)C(=O)N[C@@H](Cc1ccc(O)cc1)C(=O)N[C@@H](CC(=O)O)C(=O)O)C(C)C	0.829	20	5.92	4.93	0.096	–	22.8	0.085	1.14	7.05	8.41	89.4
CC[C@H](C)[C@H](NC(=O)[C@@H]1CCCN1C(=O)[C@H](CC(N)=O)NC(=O)[C@@H](N)Cc1c[nH]c2ccccc12)C(=O)N[C@@H](CC(C)C)C(=O)N[C@@H](CC(C)C)C(=O)N[C@@H](Cc1c[nH]c2ccccc12)C(=O)N[C@@H](CCC(N)=O)C(=O)N1CCC[C@H]1C(=O)N[C@H](C(=O)N1CCC[C@H]1C(=O)N[C@H](C(=O)N[C@@H](Cc1c[nH]cn1)C(=O)N[C@H](C(=O)N[C@H](C(=O)O)C(C)C)[C@@H](C)O)C(C)C)[C@@H](C)CC	> 8.83	115	0.081	19.6	0.695	–	0.014	> 81.8	0.208	0.607	2.26	≥ 100
CC(C)C[C@H](NC(=O)[C@H](CCC(N)=O)NC(=O)[C@H](CC(=O)O)NC(=O)[C@H](CCC(=O)O)NC(=O)[C@H](CO)NC(=O)[C@H](CC(C)C)NC(=O)[C@@H]1CCCN1C(=O)[C@@H](NC(=O)[C@@H](N)[C@@H](C)O)C(C)C)C(=O)N[C@@H](CC(C)C)C(=O)N[C@@H](Cc1ccc(O)cc1)C(=O)N[C@@H](CC(C)C)C(=O)N1CCC[C@H]1C(=O)N[C@@H](Cc1ccccc1)C(=O)N[C@@H](CCCNC(=N)N)C(=O)O	4.32	42.2	0.872	26.5	–	11.3	> 2.37	0.332	4.01	37.4	5.3	–
CSCC[C@H](NC(=O)CNC(=O)CNC(=O)[C@H](CCCNC(=N)N)NC(=O)[C@@H](NC(=O)[C@H](CCC(N)=O)NC(=O)[C@H](C)NC(=O)[C@@H](NC(=O)[C@@H](NC(=O)[C@H](CC(C)C)NC(=O)[C@H](Cc1c[nH]cn1)NC(=O)[C@H](Cc1ccc(O)cc1)NC(=O)[C@@H](N)CCCCN)[C@@H](C)O)C(C)C)C(C)C)C(=O)N[C@H](C(=O)N[C@@H](Cc1ccccc1)C(=O)O)C(C)C	> 21.9	1.52	–	0.859	0.806	0.228	1.22	33.7	0.137	5.86	0.193	0.086
GVILYSDPADYFAPG	0.0088	106	0.064	> 18.9	7.51	7.85	0.965	0.017	1.57	2.47	0.039	–
